From patent publication US20070027143A1, “Novel substituted 2,3-benzodiazepine derivatives” (priority 2003, published 2007)

| melting point | Structure (SMILES) |
| --- | --- |
| 124 to 126 °C | CC1=Cc2cc3c(cc2C(c2ccc(N)cc2)=NN1c1ncon1)OCO3.Cl |
| 192 to 194 °C | CC1Cc2cc3c(cc2C(c2ccc(N)cc2)=NN1c1nncs1)OCO3 (racemic) (hydrate or solvate) [Example 83, (±)-5-(4-Aminophenyl)-8-methyl-7-(1,3,4-thiadiazol-2-yl)-8,9-dihydro-7H-1,3-dioxolo-[4,5-h][2,3]benzodiazepine] |
| 228 to 230 °C | CC1Cc2cc3c(cc2C(c2ccc(N)cc2)=NN1c1nnc(-c2ccccc2)s1)OCO3 (racemic) (hydrate or solvate) [Example 91, (±)-5-(4-Aminophenyl)-7-(5-phenyl-1,3,4-thiadiazol-2-yl)-8-methyl-8,9-dihydro-7H-1,3-dioxolo-[4,5-h][2,3]benzodiazepine] |
| 236 to 238 °C | CC(=O)Nc1ccc(C2=NN(c3nc(C)cs3)C(C)Cc3cc4c(cc32)OCO4)cc1 (racemic) (hydrate or solvate) [Example 121, (±)-5-(4-Acetylaminophenyl)-8-methyl-7-(4-methyl-thiazol-2-yl)-8,9-dihydro-7H-1,3-dioxolo-[4,5-h][2,3]benzodiazepine] |
| 163 to 164 °C | CCc1nnc(N2N=C(c3ccc([N+](=O)[O-])cc3)c3cc4c(cc3CC2C)OCO4)s1 (racemic) [Example 30, (±)-7-(5-Ethyl-1,3,4-thiadiazol-2-yl)-8-methyl-5-(4-nitrophenyl) 8,9-dihydro-7H-1,3-dioxolo[4,5-h][2,3]benzodiazepine] |
| 210 to 212 °C | CC1Cc2cc3c(cc2C(c2ccc([N+](=O)[O-])cc2)=NN1c1nnc(-c2ccccc2)s1)OCO3 (racemic) [Example 33, (±)-8-Methyl-5-(4-nitrophenyl)-7-(5-phenyl-1,3,4-thiadiazol-2-yl)-8,9-dihydro-7H-1,3-dioxolo[4,5-h][2,3]benzodiazepine] |
| 210 to 211 °C | CC1Cc2cc3c(cc2C(c2ccc([N+](=O)[O-])cc2)=NN1c1nnc(CCl)s1)OCO3 (racemic) [Example 34, (±)-7-(5-Chloromethyl-1,3,4-thiadiazol-2-yl)-8-methyl-5-(4-nitrophenyl)-8,9-dihydro-7H-1,3-dioxolo[4,5-h][2,3]benzodiazepine] |
| 246 to 247 °C | CC1Cc2cc3c(cc2C(c2ccc([N+](=O)[O-])cc2)=NN1c1nc(=O)n(C2CC2)s1)OCO3 (racemic) [Example 47, (±)-7-(2-Cyclopropyl-3-oxo-2,3-dihydro-1,2,4-thiadiazol-5-yl)-8-methyl-5-(4-nitrophenyl)-8,9-dihydro-7H-1,3-dioxolo[4,5-h][2,3]benzodiazepine] |
| 187 to 190 °C | CC1Cc2cc3c(cc2C(c2ccc(N)cc2)=NN1c1nccs1)OCO3 (racemic) [Example 60, (±)-5-(4-Aminophenyl)-8-methyl-7-(2-thiazolyl)-8,9-dihydro-7H-1,3-dioxolo[4,5-h][2,3]benzodiazepine] |
| 190 to 191 °C | Cc1csc(N2N=C(c3ccc(N)cc3)c3cc4c(cc3CC2C)OCO4)n1 (racemic) [Example 63, (±)-5-(4-Aminophenyl)-8-methyl-7-(4-methyl-thiazol-2-yl)-8,9-dihydro-7H-1,3-dioxolo-[4,5-h][2,3]benzodiazepine] |
| 165 to 167 °C | Cc1cnc(N2N=C(c3ccc(N)cc3)c3cc4c(cc3CC2C)OCO4)s1 (racemic) [Example 64, (±)-5-(4-Aminophenyl)-8-methyl-7-(5-methyl-thiazol-2-yl)-8,9-dihydro-7H-1,3-dioxolo-[4,5-h][2,3]benzodiazepine] |
| 240 to 242 °C | Cc1nc(N2N=C(c3ccc(N)cc3)c3cc4c(cc3CC2C)OCO4)sc1C (racemic) [Example 65, (±)-5-(4-Aminophenyl)-8-methyl-7-(4,5-dimethyl-thiazol-2-yl)-8,9-dihydro-7H-1,3-dioxolo-[4,5-h][2,3]benzodiazepine] |
| 221 to 223 °C | CC1Cc2cc3c(cc2C(c2ccc(N)cc2)=NN1c1nc(-c2ccccc2)cs1)OCO3 (racemic) [Example 66, (±)-5-(4-Aminophenyl)-7-(4-phenyl-thiazol-2-yl)-8-methyl-8,9-dihydro-7H-1,3-dioxolo-[4,5-h][2,3]benzodiazepine] |
| 251 to 252 °C | CCOC(=O)c1csc(N2N=C(c3ccc(N)cc3)c3cc4c(cc3CC2C)OCO4)n1 (racemic) [Example 67, (±)-5-(4-Aminophenyl)-7-(4-ethoxycarbonyl-thiazol-2-yl)-8-methyl-8,9-dihydro-7H-1,3-dioxolo-[4,5-h][2,3]benzodiazepine] |
| 145 to 150 °C | CC1Cc2cc3c(cc2C(c2ccc(N)cc2)=NN1C1=NCCS1)OCO3 (racemic) [Example 68, (±)-5-(4-Aminophenyl)-7-(4,5-dihydro-thiazol-2-yl)-8-methyl-8,9-dihydro-7H-1,3-dioxolo-[4,5-h][2,3]benzodiazepine] |
| 218 to 220 °C | CC1Cc2cc3c(cc2C(c2ccc(N)cc2)=NN1C1=NC(=O)CS1)OCO3 (racemic) [Example 71, (±)-5-(4-Aminophenyl)-7-(4,5-dihydro-4-oxo-thiazol-2-yl)-8-methyl-8,9-dihydro-7H-1,3-dioxolo-[4,5-h][2,3]benzodiazepine] |

| melting point | Structure (SMILES) |
| --- | --- |
| 200 to 204 °C | CC1SC(N2N=C(c3ccc(N)cc3)c3cc4c(cc3CC2C)OCO4)=NC1=O (racemic) [Example 72, (±)-5-(4-Aminophenyl)-7-(4,5-dihydro-5-methyl-4-oxo-thiazol-2-yl)-8-methyl-8,9-dihydro-7H-1,3-dioxolo-[4,5-h][2,3]benzodiazepine] |
| 226 to 228 °C | CC1Cc2cc3c(cc2C(c2ccc(N)cc2)=NN1C1=NC(=O)CCS1)OCO3 (racemic) [Example 73, (±)-5-(4-Aminophenyl)-7-(5,6-dihydro-4-oxo-4H-1,3-thiazin-2-yl)-8-methyl-8,9-dihydro-7H-1,3-dioxolo-[4,5-h][2,3]benzodiazepine] |
| 225 to 227 °C | Cc1cc(C2=NN(c3nccs3)C(C)Cc3cc4c(cc32)OCO4)ccc1N (racemic) [Example 75, (±)-5-(4-Amino-3-methylphenyl)-8-methyl-7-(2-thiazolyl)-8,9-dihydro-7H-1,3-dioxolo-[4,5-h][2,3]benzodiazepine] |
| 105 to 107 °C | COc1ccc2c(c1)C(c1ccc(N)cc1)=NN(c1nccs1)C(C)C2 (racemic) [Example 76, (±)-1-(4-Aminophenyl)-4-methyl-8-methoxy-3-(2-thiazolyl)-4,5-dihydro-3H-[2,3]benzodiazepine] |
| 104 to 107 °C | CC1Cc2ccc(Cl)cc2C(c2ccc(N)cc2)=NN1c1nccs1 (racemic) [Example 77, (±)-1-(4-Aminophenyl)-8-chloro-4-methyl-3-(2-thiazolyl)-4,5-dihydro-3H-[2,3]benzodiazepine] |
| 173 to 175 °C | Cc1csc(N2N=C(c3ccc(N)cc3)c3cc(Cl)ccc3CC2C)n1 (racemic) [Example 78, (±)-1-(4-Aminophenyl)-8-chloro-4-methyl-3-(4-methyl-thiazol-2-yl)-4,5-dihydro-3H-[2,3]benzodiazepine] |
| 213 to 216 °C | CC1Cc2ccc(Cl)cc2C(c2ccc(N)cc2)=NN1C1=NCCS1 (racemic) [Example 79, (±)-1-(4-Aminophenyl)-3-(4,5-dihydro-thiazol-2-yl)-8-chloro-4-methyl-4,5-dihydro-3H-[2,3]benzodiazepine] |
| 226 to 228 °C | CC1Cc2ccc(Cl)cc2C(c2ccc(N)cc2)=NN1C1=NC(=O)CS1 (racemic) [Example 80, (±)-1-(4-Aminophenyl)-3-(4,5-dihydro-4-oxo-thiazol-2-yl)-8-chloro-4-methyl-4,5-dihydro-3H-[2,3]benzodiazepine] |
| 182 to 184 °C | Cc1csc(N2N=C(c3ccc(N)cc3)c3cc(Cl)c(Cl)cc3CC2C)n1 (racemic) [Example 81, (±)-1-(4-Aminophenyl)-7,8-dichloro-3-(4-methyl-thiazol-2-yl)-4-methyl-4,5-dihydro-3H-[2,3]benzodiazepine] |
| 166 to 167 °C | CC1Cc2cc3c(cc2C(c2ccc(N)cc2)=NN1C1=NCCO1)OCO3 (racemic) [Example 82, (±)-5-(4-Aminophenyl)-7-(4,5-dihydro-oxazol-2-yl)-8-methyl-8,9-dihydro-7H-1,3-dioxolo-[4,5-h][2,3]benzodiazepine] |
| 143 to 148 °C | Cc1nnc(N2N=C(c3ccc(N)cc3)c3cc4c(cc3CC2C)OCO4)s1 (racemic) [Example 85, (±)-5-(4-Aminophenyl)-8-methyl-7-(5-methyl-1,3,4-thiadiazol-2-yl)-8,9-dihydro-7H-1,3-dioxolo-[4,5-h][2,3]benzodiazepine] |
| 145 to 148 °C | CC1Cc2cc3c(cc2C(c2ccc(N)cc2)=NN1c1nnc(C2CC2)s1)OCO3 (racemic) [Example 87, (±)-5-(4-Aminophenyl)-7-(5-cyclopropyl-1,3,4-thiadiazol-2-yl)-8-methyl-8,9-dihydro-7H-1,3-dioxolo[4,5-h][2,3]benzodiazepine] |
| 216 to 218 °C | CC1Cc2cc3c(cc2C(c2ccc(N)cc2)=NN1c1nnc(C(F)(F)F)s1)OCO3 (racemic) [Example 90, (±)-5-(4-Aminophenyl)-8-methyl-7-(5-trifluoromethyl-1,3,4-thiadiazol-2-yl)-8,9-dihydro-7H-1,3-dioxolo-[4,5-h][2,3]benzodiazepine] |
| 135 to 138 °C | CC1Cc2cc3c(cc2C(c2ccc(N)cc2)=NN1C1=NN=C(NC2CC2)[SH]1C)OCO3 (racemic) [Example 92, (±)-5-(4-Aminophenyl)-7-(5-cyclopropylamino-methyl-1,3,4-thiadiazol-2-yl)-8-methyl-8,9-dihydro-7H-1,3-dioxolo[4,5-h][2,3]benzodiazepine] |
| 125 to 128 °C | CC1Cc2ccc(Cl)cc2C(c2ccc(N)cc2)=NN1c1nncs1 (racemic) [Example 93, (±)-1-(4-Aminophenyl)-8-chloro-4-methyl-3-(1,3,4-thiadiazol-2-yl)-4,5-dihydro-3H-[2,3]benzodiazepine] |

| Structure (SMILES) | melting point |
| --- | --- |
| Cc1nnc(N2N=C(c3ccc(N)cc3)c3cc4c(cc3C[C@H]2C)OCO4)s1 (hydrate or solvate) [Example 86, (R)-5-(4-Aminophenyl)-8-methyl-7-(5-methyl-1,3,4-thiadiazol-2-yl)-8,9-dihydro-7H-1,3-dioxolo-[4,5-h][2,3]benzodiazepine] | 168 to 170 °C |
